Assay results from PubChem BioAssay (NCI).
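48-hour exposure; five concentrations; linearly interpolated endpoints. Abbreviation: GI50, concentration required for 50% inhibition of growth. The concentration for full growth arrest is given as TGI.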

Columns and labels:
Assay in all cases: NCI-60 cell line screen, 48 h
[1] = system: KM12 colon
[2] = system: SNB-75 CNS
[3] = system: HOP-62 NSCLC
[4] = system: NCI/ADR-RES ovarian
[5] = system: TK-10 renal
[6] = system: OVCAR-3 ovarian
[7] = system: MALME-3M melanoma
[8] = system: OVCAR-8 ovarian
[9] = system: SW-620 colon
[10] = system: SK-MEL-28 melanoma

Compound	TGI [1] [µM]	TGI [2] [µM]	TGI [3] [µM]	TGI [4] [µM]	TGI [5] [µM]	TGI [6] [µM]	TGI [7] [µM]	TGI [8] [µM]	TGI [9] [µM]	TGI [10] [µM]	GI50 [1] [µM]	GI50 [2] [µM]	GI50 [3] [µM]	GI50 [4] [µM]	GI50 [5] [µM]	GI50 [6] [µM]	GI50 [7] [µM]	GI50 [8] [µM]	GI50 [9] [µM]	GI50 [10] [µM]
CCNC(=S)N/N=C/c1cc(OC)ccc1O	> 100	> 100	> 100	> 100	> 100	> 100	> 100	> 100	> 100	> 100	–	–	–	–	–	–	–	–	–	–
CC(C)(C)c1cc(C(O)(C(=O)O)C(=O)O)cc(C(C)(C)C)c1O	> 100	> 100	> 100	> 100	> 100	> 100	> 100	> 100	> 100	> 100	–	–	–	–	–	–	–	–	–	–
NNC(=O)CC(=O)Nc1ccc(Cl)cc1	> 100	> 100	> 100	> 100	> 100	> 100	> 100	> 100	> 100	> 100	–	–	–	–	–	–	–	–	–	–
CC1(C)C2CCC1(CS(=O)(=O)Nc1ccccc1)C(=O)C2 (stereo not given)	> 100	> 100	> 100	> 100	> 100	> 100	> 100	> 100	> 100	> 100	–	–	–	–	–	–	–	–	–	–
CCCC(Sc1nc(N)nc2nc[nH]c12)C(=O)O (stereo not given)	> 100	> 100	> 100	> 100	88	> 100	> 100	> 100	> 100	> 100	–	–	–	–	–	–	–	–	–	–
Cc1c(-c2ccccc2)c(C#N)c2nnn(-c3ccccc3)c(=O)n12	> 100	> 100	> 100	> 100	> 100	> 100	> 100	> 100	> 100	> 100	–	–	–	–	–	–	–	–	–	–
O=C(O)CC(NC(=O)Nc1ccc([N+](=O)[O-])cc1)C(=O)Nc1ccc([N+](=O)[O-])cc1 (stereo not given)	> 100	> 100	> 100	> 100	> 100	> 100	> 100	> 100	> 100	> 100	–	–	–	–	–	–	–	–	–	–
COc1cc2c(cc1OCCCC(=O)Nc1cc(C(=O)Nc3cc(C(=O)Nc4cc(C(=O)NCCCN(C)C)n(C)c4)n(C)c3)n(C)c1)N=C[C@@H]1CCCN1C2=O	> 52.2	9.95	9.83	6.21	3.49	3.62	3.39	3.21	5.98	4.66	–	–	–	–	–	–	–	–	–	–
COc1cc(C2c3cc4c(cc3C(O)C3CCC(=O)N23)OCO4)cc(OC)c1OC (stereo not given)	> 100	> 100	> 100	> 100	> 100	> 100	> 100	> 100	> 100	> 100	–	–	–	–	–	–	–	–	–	–
O=C(Nc1ccccc1)c1cc2c(cc1Cl)Sc1nccn1S2(=O)=O	54.4	63.7	> 59.8	> 100	> 100	59.3	74.3	> 100	> 78.9	46.9	–	–	–	–	–	–	–	–	–	–
CCCC1NC(C#N)(C#N)C(CCC)NC1(C#N)C#N (stereo not given)	> 65.9	> 41.1	> 100	15.2	> 100	29.1	> 100	21.6	> 100	> 100	–	–	–	–	–	–	–	–	–	–
O=C1Cc2c(-c3ccc(Cl)cc3)cc(-c3ccccc3)nc2-c2ccccc2N1	> 100	14.2	53.3	26.4	21.3	27.1	> 64	11.6	> 46	34.8	–	–	–	–	–	–	–	–	–	–
CC1(C)CCC[C@]2(C)[C@@H]1CC[C@@]13O[C@@H]1C1=C(CO)C(=O)O[C@]14O[C@@H]4[C@@H]23	63.8	30.6	34.6	39.1	38	27.1	32.4	26.7	29.5	31.4	–	–	–	–	–	–	–	–	–	–
O=C1COC(c2ccccc2O)=NN1CCCN1CCCC1	> 100	> 100	> 100	> 100	> 100	> 100	> 100	> 100	> 100	> 100	–	–	–	–	–	–	–	–	–	–
O=[N+]([O-])c1ccc2c(c1)nc(Cc1ccccc1)n2C[C@@H]1CCCN2CCCCC12 (stereo not given in full)	55.4	> 100	> 100	> 100	> 100	> 100	29.2	> 100	> 100	38.3	–	–	–	–	–	–	–	–	–	–
c1ccc2c(c1)c1c(n2CCOCCN2CCCCC2)CCCC1	26.7	26.7	29	23.4	27.3	21.7	26.7	28.4	35.7	58	–	–	–	–	–	–	–	–	–	–
CN(C)CCCn1c(Cc2ccccc2)nc2cc(C(F)(F)F)ccc21	31.3	> 100	> 100	> 100	98.4	> 100	35.5	> 100	75.2	37.6	–	–	–	–	–	–	–	–	–	–

Compound	TGI [1] [µM]	TGI [2] [µM]	TGI [3] [µM]	TGI [4] [µM]	TGI [5] [µM]	TGI [6] [µM]	TGI [7] [µM]	TGI [8] [µM]	TGI [9] [µM]	TGI [10] [µM]	GI50 [1] [µM]	GI50 [2] [µM]	GI50 [3] [µM]	GI50 [4] [µM]	GI50 [5] [µM]	GI50 [6] [µM]	GI50 [7] [µM]	GI50 [8] [µM]	GI50 [9] [µM]	GI50 [10] [µM]
COC(c1ccsc1)C(C#N)(C#N)N=Cc1ccsc1 (stereo not given)	32.3	29.9	34.8	53.1	36.2	42.2	29.8	49.9	28.4	33.1	–	–	–	–	–	–	–	–	–	–
O=C1NN=C(c2ccc(Cl)cc2)CC1C1C(=O)N(c2ccccc2)N=C1c1ccccc1 (stereo not given)	> 100	> 100	> 100	> 100	> 100	72.9	> 100	> 100	> 100	> 100	–	–	–	–	–	–	–	–	–	–
COC12C=C/C(=C(/C(=O)OCc3ccncn3)C(=O)CCCCCCCCC3(OC)C=C/C(=C(/C(=O)OCc4ccncn4)C(=O)CCCCCCCC1)O3)O2	0.499	17.7	0.6	12.6	2.4	0.903	0.629	14.9	1.14	2.51	0.227	1.52	0.225	0.417	0.395	0.317	0.228	0.331	0.303	0.317
COc1cc(/C=C2\C[C@H]3[C@@H]4CC=C5C[C@@H](N6CCCC6)CC[C@]5(C)[C@H]4CC[C@]3(C)[C@H]2O)cc(OC)c1OC	23	25.8	30.6	40.8	34.6	31.2	23.9	23.4	> 61.4	35	–	–	–	–	–	–	–	–	–	–
O=C(NCC1Nc2ccncc2S(=O)(=O)N1)c1ccc(Br)cc1 (stereo not given)	> 100	> 100	> 100	> 100	> 100	> 100	97.5	> 100	> 100	> 100	–	–	–	–	–	–	–	–	–	–
Cc1cc(NS(=O)(=O)c2ccc(NC(=O)c3ccc4nc5ccccc5c(Nc5ccc(S(=O)(=O)N=C(N)N)cc5)c4c3)cc2)no1	32.2	51.9	35.8	57.5	41.4	34.6	29.4	32.9	48.5	35	–	–	–	–	–	–	–	–	–	–
CCOC(=O)c1c(SC(=O)c2cc(OC)c(OC)c(OC)c2)n(-c2ccccc2)c(=S)n(-c2ccccc2)c1=O	> 100	> 100	> 100	> 100	> 100	> 100	> 100	> 100	> 100	> 100	–	–	–	–	–	–	–	–	–	–
Brc1ccc2c(-c3nc(-c4c[nH]c5ccccc45)cs3)c[nH]c2c1	> 47.3	> 100	> 100	> 100	45.8	> 100	> 100	> 100	> 86.8	> 93.6	–	–	–	–	–	–	–	–	–	–
CC(=O)N1N=C(c2c(O)ccc3ccccc23)CC1C(=O)c1ccco1 (stereo not given)	> 100	> 100	> 100	> 100	> 100	44	> 100	> 100	> 100	> 100	–	–	–	–	–	–	–	–	–	–
CCN1CCN(C(=O)[C@]23CC[C@@H](C)[C@H](C)[C@@H]2C2=CC[C@@H]4[C@@]5(C)C/C(=C/c6cccnc6)C(=O)C(C)(C)[C@@H]5CC[C@@]4(C)[C@]2(C)CC3)CC1	3.56	8.91	5.86	3.32	9.4	3.19	2.75	6.29	4.14	3.15	1.75	1.57	2.43	1.59	2.87	1.65	1.4	2.32	1.9	1.75
O=S(=O)(c1cc(Cl)ccc1Cl)N1CCN(S(=O)(=O)c2cc(Cl)ccc2Cl)CC1	> 100	> 100	> 100	> 100	> 100	> 100	> 100	> 100	> 100	> 100	–	–	–	–	–	–	–	–	–	–
O=C(O)Cc1ccc(Oc2nc3ccccc3nc2-c2cccs2)cc1	> 100	83.2	> 100	> 100	> 100	> 100	> 100	> 100	> 100	> 100	–	–	–	–	–	–	–	–	–	–
O=c1c2ccccc2oc2c1ccc1ncccc12	> 100	95.5	78.1	36.3	32.6	89.6	52.2	> 100	42	> 100	–	–	–	–	–	–	–	–	–	–
C/C(O)=C/c1nc2ccccc2nc1/C=C(/C)O	57.3	63.3	67.1	93.2	42.2	40.7	50.7	83.3	> 100	> 100	–	–	–	–	–	–	–	–	–	–
CCOC(=O)c1ccc(-c2cc(C)[nH]n2)[nH]1	> 100	> 100	> 100	> 100	> 100	> 100	> 100	> 100	> 100	> 100	–	–	–	–	–	–	–	–	–	–
Cc1cc(S(=O)(=O)Nc2nc3ccsc3c(=O)n2N)c(S)cc1Cl	> 100	> 100	> 100	> 100	> 100	> 100	> 100	> 100	> 100	> 100	–	–	–	–	–	–	–	–	–	–
